{"source": "patent US20260373165A1", "about": "“PHARMACEUTICAL COMBINATIONS AND COMPOSITIONS, AND METHODS OF USE THEREOF” (SHENZHEN HIGHTIDE BIOPHARMACEUTICAL LTD., priority 2022, published 2026)", "type_in_all_cases": "in vivo, mouse (C57BL/6J male, 60% HFD DIO)", "key": {"[1]": {"assay": "Example 2: lean mass by MRI on day 23", "excerpt": "(§1) After 5-6-week-old C57BL/6J male mice were acclimatized for 1 week, the weight of each mouse was weighed, and the mice were randomly divided into a control group and a model group by taking the weight as a main index, where 12 mice in the control group were fed with common feed (CD), and the mice in the remaining model group were fed with 60% high-fat feed (60% HFD) for 10-12 weeks to construct a DIO obesity model, with the average body weight being not less than 40 g. The mice fed with 60% HFD were grabbed and acclimatized with a solvent for 3 days, where the acclimatization with a solvent was performed by oral gavage of 0.5% CMC-Na, once daily.\n(§2) The food intake, the body weight, the body fat ratio, and the insulin level of the mice were respectively measured, followed by fasting blood glucose level, and the mice were randomly grouped according to Table 12 by taking the body weight as an index, and the remaining ungrouped mice were euthanized. After grouping, each group of mice was administered according to Table 12, the day of administration was defined as DO, and the administration volume of each drug was determined based on the results obtained by the calculation of 5 μL/g× mouse body weight (g).\n(§3) For the combined administration group, the administration sequence and the administration time were kept consistent at each administration. The mice were continuously fed with high-fat feed during the administration period until the administration was finished. During administration, 1 food intake was measured per week (difference in feed weights at an interval of 24 h was measured); each group of mice was weighed once daily; blood was collected from the tail tip on day 16 and day 30, respectively, so as to measure fasting blood glucose levels once (blood was collected after fasting from 9:00 am to 3:[…]); on day 24 of administration (D23), the body fat ratio and the lean mass of each group of mice were measured by MRI (the measurement period was kept consistent with that before grouping); after 25 days of administration intervention (day 24), each group of mice was fasted for 6 h and subjected to OGTT (0 min, 15 min, 30 min, 60 min, 90 min, 120 min) to detect their blood glucose levels; after 29 days of administration intervention (day 28), each group of mice was fasted for 6 h and subjected to OGTT (0 min, 15 min, 30 min, 60 min, 90 min, 120 min), and meanwhile subjected to blood sampling via submaxillary vein (0 min, 15 min, 30 min, about 30 μL of blood sampled each time), and then the blood plasma was separated for detecting the insulin level by ELISA, where the separated blood plasma was more than 10 μL; the next day (D30) at the end of administration was set as the test endpoint, and the mice were fasted for 6 h in the morning and subjected to fasting blood glucose level measurement; subsequently, the mice were euthanized with CO2, blood was collected from the heart of each mouse for analysis, and each group of mice was dissected; the liver and subcutaneous, epididymal and mesenteric fat was collected, photographed and weighed, respectively.\nThe body weight, the lean mass and the lean ratio of each animal in groups G1 to G8 were measured on day 23 and averaged for each group, and the results are shown in Table 16 below, and FIGS. 23 and 24."}, "[2]": {"assay": "Example 2: body fat mass by MRI on day 23", "excerpt": "as §1, §2, §3\nThe body weight, the body fat mass and the body fat ratio of each animal in groups G1 to G8 were measured on day 23 and averaged for each group, and the results are shown in Table 15 below, and FIGS. 21 and 22."}, "[3]": {"assay": "Example 2: body weight and body weight change rate, combined administration of HTD1801 and dapagliflozin or empagliflozin in DIO obesity model", "settings": "HTD1801 250 mpk, dapagliflozin 10 mpk, empagliflozin 15 mpk p.o. QD, semaglutide 10 nmol/kg s.c. Q3D", "excerpt": "as §1, §2, §3"}, "[4]": {"settings": "mean, day 23, HTD1801 250 mpk, dapagliflozin 10 mpk, empagliflozin 15 mpk p.o. QD"}}, "data": [{"smiles": "COc1ccc2cc3[n+](cc2c1OC)CCc1cc2c(cc1-3)OCO2.C[C@H](CCC(=O)[O-])[C@H]1CC[C@H]2[C@@H]3[C@@H](O)C[C@@H]4C[C@H](O)CC[C@]4(C)[C@H]3CC[C@]12C", "note": "[HTD1801, berberine ursodeoxycholate]", "values": [{"measurement": "lean ratio (in words)", "setting": "[1]; day 23, relative to model control group G2", "result": "slightly increased"}, {"measurement": "Body weight", "setting": "[1]; mean, day 23 (Table 16), HTD1801 250 mpk, dapagliflozin 10 mpk, empagliflozin 15 mpk p.o. QD", "result": 38.9, "unit": "g"}, {"measurement": "Lean (lean mass)", "setting": "[1]; [4]", "result": 5.1, "unit": "g"}, {"measurement": "Lean ratio", "setting": "[1]; [4]", "result": 13.0, "unit": "%"}, {"measurement": "body fat mass and body fat ratio (in words)", "setting": "[2]; day 23, relative to control group G2", "result": "significantly decreased"}, {"measurement": "Body weight", "setting": "[2]; mean, day 23 (Table 15), HTD1801 250 mpk, dapagliflozin 10 mpk, empagliflozin 15 mpk p.o. QD", "result": 38.9, "unit": "g"}, {"measurement": "Body fat ratio", "setting": "[2]; [4]", "result": 44.8, "unit": "%"}, {"measurement": "Fat (body fat mass)", "setting": "[2]; [4]", "result": 17.5, "unit": "g"}, {"measurement": "body weight change / weight loss effect (in words)", "setting": "[3]", "result": "close to that of the semaglutide group, with a uniform and sustained decrease throughout the administration period"}, {"measurement": "Body weight (mean)", "setting": "[3]; day 0 (baseline)", "result": 45.3, "unit": "g"}, {"measurement": "Body weight change rate", "setting": "[3]; day 0 (baseline)", "result": 0.0, "unit": "%"}, {"measurement": "Body weight (mean)", "setting": "[3]; day 1", "result": 44.5, "unit": "g"}, {"measurement": "Body weight change rate", "setting": "[3]; day 1", "result": "−1.6", "unit": "%"}, {"measurement": "Body weight (mean)", "setting": "[3]; day 2", "result": 44.1, "unit": "g"}, {"measurement": "Body weight change rate", "setting": "[3]; day 2", "result": "−2.5", "unit": "%"}, {"measurement": "Body weight (mean)", "setting": "[3]; day 3", "result": 44.1, "unit": "g"}, {"measurement": "Body weight change rate", "setting": "[3]; day 3", "result": "−2.5", "unit": "%"}, {"measurement": "Body weight (mean)", "setting": "[3]; day 4", "result": 43.6, "unit": "g"}, {"measurement": "Body weight change rate", "setting": "[3]; day 4", "result": "−3.7", "unit": "%"}, {"measurement": "Body weight (mean)", "setting": "[3]; day 5", "result": 43.1, "unit": "g"}, {"measurement": "Body weight change rate", "setting": "[3]; day 5", "result": "−4.9", "unit": "%"}, {"measurement": "Body weight (mean)", "setting": "[3]; day 6", "result": 42.7, "unit": "g"}, {"measurement": "Body weight change rate", "setting": "[3]; day 6", "result": "−5.7", "unit": "%"}, {"measurement": "Body weight (mean)", "setting": "[3]; day 7", "result": 42.7, "unit": "g"}, {"measurement": "Body weight change rate", "setting": "[3]; day 7", "result": "−5.7", "unit": "%"}, {"measurement": "Body weight (mean)", "setting": "[3]; day 8", "result": 42.5, "unit": "g"}, {"measurement": "Body weight change rate", "setting": "[3]; day 8", "result": "−6.2", "unit": "%"}, {"measurement": "Body weight (mean)", "setting": "[3]; day 9", "result": 41.9, "unit": "g"}, {"measurement": "Body weight change rate", "setting": "[3]; day 9", "result": "−7.5", "unit": "%"}, {"measurement": "Body weight (mean)", "setting": "[3]; day 10", "result": 41.9, "unit": "g"}, {"measurement": "Body weight change rate", "setting": "[3]; day 10", "result": "−7.4", "unit": "%"}, {"measurement": "Body weight (mean)", "setting": "[3]; day 11", "result": 41.7, "unit": "g"}, {"measurement": "Body weight change rate", "setting": "[3]; day 11", "result": "−7.9", "unit": "%"}, {"measurement": "Body weight (mean)", "setting": "[3]; day 12", "result": 41.3, "unit": "g"}, {"measurement": "Body weight change rate", "setting": "[3]; day 12", "result": "−8.7", "unit": "%"}, {"measurement": "Body weight (mean)", "setting": "[3]; day 13", "result": 40.3, "unit": "g"}, {"measurement": "Body weight change rate", "setting": "[3]; day 13", "result": "−10.9", "unit": "%"}, {"measurement": "Body weight (mean)", "setting": "[3]; day 14", "result": 40.5, "unit": "g"}, {"measurement": "Body weight change rate", "setting": "[3]; day 14", "result": "−10.7", "unit": "%"}, {"measurement": "Body weight (mean)", "setting": "[3]; day 15", "result": 40.3, "unit": "g"}, {"measurement": "Body weight change rate", "setting": "[3]; day 15", "result": "−11.1", "unit": "%"}, {"measurement": "Body weight (mean)", "setting": "[3]; day 16", "result": 40.2, "unit": "g"}, {"measurement": "Body weight change rate", "setting": "[3]; day 16", "result": "−11.2", "unit": "%"}, {"measurement": "Body weight (mean)", "setting": "[3]; day 17", "result": 39.9, "unit": "g"}, {"measurement": "Body weight change rate", "setting": "[3]; day 17", "result": "−11.8", "unit": "%"}, {"measurement": "Body weight (mean)", "setting": "[3]; day 18", "result": 39.7, "unit": "g"}, {"measurement": "Body weight change rate", "setting": "[3]; day 18", "result": "−12.3", "unit": "%"}, {"measurement": "Body weight (mean)", "setting": "[3]; day 19", "result": 39.4, "unit": "g"}, {"measurement": "Body weight change rate", "setting": "[3]; day 19", "result": "−12.8", "unit": "%"}, {"measurement": "Body weight (mean)", "setting": "[3]; day 20", "result": 39.3, "unit": "g"}, {"measurement": "Body weight change rate", "setting": "[3]; day 20", "result": "−13.2", "unit": "%"}, {"measurement": "Body weight (mean)", "setting": "[3]; day 21", "result": 39.1, "unit": "g"}, {"measurement": "Body weight change rate", "setting": "[3]; day 21", "result": "−13.5", "unit": "%"}, {"measurement": "Body weight (mean)", "setting": "[3]; day 22", "result": 39.2, "unit": "g"}, {"measurement": "Body weight change rate", "setting": "[3]; day 22", "result": "−13.4", "unit": "%"}, {"measurement": "Body weight (mean)", "setting": "[3]; day 23", "result": 38.9, "unit": "g"}, {"measurement": "Body weight change rate", "setting": "[3]; day 23", "result": "−14.0", "unit": "%"}, {"measurement": "Body weight (mean)", "setting": "[3]; day 24", "result": 38.2, "unit": "g"}, {"measurement": "Body weight change rate", "setting": "[3]; day 24", "result": "−15.6", "unit": "%"}, {"measurement": "Body weight (mean)", "setting": "[3]; day 25", "result": 38.4, "unit": "g"}, {"measurement": "Body weight change rate", "setting": "[3]; day 25", "result": "−15.1", "unit": "%"}, {"measurement": "Body weight (mean)", "setting": "[3]; day 26", "result": 38.6, "unit": "g"}, {"measurement": "Body weight change rate", "setting": "[3]; day 26", "result": "−14.6", "unit": "%"}, {"measurement": "Body weight (mean)", "setting": "[3]; day 27", "result": 38.7, "unit": "g"}, {"measurement": "Body weight change rate", "setting": "[3]; day 27", "result": "−14.5", "unit": "%"}, {"measurement": "Body weight (mean)", "setting": "[3]; day 28", "result": 38.4, "unit": "g"}, {"measurement": "Body weight change rate", "setting": "[3]; day 28", "result": "−15.1", "unit": "%"}, {"measurement": "Body weight (mean)", "setting": "[3]; day 29", "result": 37.4, "unit": "g"}, {"measurement": "Body weight change rate", "setting": "[3]; day 29", "result": "−17.4", "unit": "%"}]}]}
